Like-named read-outs stand apart in the source and are kept apart here.
Assays:
[1] = opioid challenged cynomolgus monkeys, intravenous; cited from earlier work
human TASK-3 = target: T1, human TASK-3 (Homo sapiens, UniProt Q9NPC2); assay: Whole-cell patch clamp on tsA201 cells expressing cloned human TASK-3; assay type: cell-based; conditions: for inhibition of human TASK-3 current: acute application; for EC50: tsA201 cells, whole-cell patch clamp, room temperature, read-out: EC50, inhibition of human TASK-3 current
T1 construct: expressed in transfected cells; host or cells: tsA201 (modified HEK293), transient transfection, pcDNA3.1+
Procedure: (§1) Murine (mur) wild‐type (WT) TASK‐1 (KCNK3, Genbank^TM DQ185133) and WT murTASK‐3 (KCNK9, Genbank^TM AH009585.2) cDNA were cloned into pCS2^+ vector and were a kind gift from William Wisden (Imperial College, UK). Human WT TASK‐1 (Genbank^TM AF006823.1), WT TASK‐3 (Genbank^TM AF212829) and WT TASK‐2 (KCNK5, Genbank^TM AF084830.1) cDNA’s, were cloned into pcDNA3.1^+ vector (Invitrogen) and were a kind gift from Helen Meadows (GlaxoSmithKline).
(§2) All experiments were performed using a modified human embryonic kidney 293 cell line, tsA201 (ECACC; Sigma‐Aldrich), prepared and maintained as previously described.54
(§3) For the electrophysiological experiments, cells were transiently transfected using a modified calcium phosphate protocol, following a process as previously described.54 Vectors cloned with the gene of interest and a similar vector encoding the cDNA for GFP were added to each well at a concentration of 0.5 µg per well, with the exception being for murTASK‐3, where 0.125 µg per well was used.
(§4) Currents were recorded from tsA201 cells transiently transfected with the channel of interest using whole‐cell patch clamp in a voltage clamp configuration and a step‐ramp voltage protocol as previously described.54 Briefly, all experiments were conducted at room temperature (20‐24°C) using an external solution composed of 145 mM of NaCl, 2.5 mM of KCL, 3 mM of MgCl2, 1 mM of CaCl2 and 10 mM of HEPES (pH 7.4, using NaOH) and an intracellular pipette solution composed of 150 mM of KCL, 3 mM of MgCl2, 5 mM of EGTA and 10 mM of HEPES (pH adjusted to 7.4 with KOH). External solution and modulatory compounds were superfused at a rate of 4‐5 mL min^−1. Currents were recorded using an Axopatch 1D patch clamp amplifier (Molecular Devices), filtered at 0.3 kHz, digitized at 1 kHz.
(§5) For analysis of outward current, we measured the current difference between the −80 and −40 mV. The current‐voltage graphs were obtained from the ramp change in voltage between −120 and +20 mV. For each cell, the current amplitude (pA) was normalized to the cell capacitance (pF). The currents obtained were analysed using pCLAMP 10.2 software (Molecular Devices), Microsoft Excel and GraphPad Prism 6 or 7 software. Data were expressed as the mean ± 95% Confidence Intervals (CI), and n represents the number of individual cells. For EC50 calculations, concentration‐response curves were fitted using the Hill equation. Statistical analysis used were one‐way ANOVA with a post‐hoc Dunnett's test or an unpaired/paired Student's t test. Data were considered statistically different if P < .05. The data and statistical analysis comply with the recommendations on experimental design and analysis in pharmacology.55

human TASK-1 = target: T2, human TASK-1 (Homo sapiens, UniProt O14649); assay: Whole-cell patch clamp on tsA201 cells expressing cloned human TASK-1; assay type: cell-based; conditions: for inhibition of human TASK-1 current: acute application; for EC50: tsA201 cells, whole-cell patch clamp, room temperature, read-out: EC50, inhibition of human TASK-1 current
T2 construct: expressed in transfected cells; host or cells: tsA201 (modified HEK293), transient transfection, pcDNA3.1+
Procedure: as §1, §2, §3, §4, §5

[2] = opioid challenged rats, intravenous; cited from earlier work
murTASK-3 = target: T3, murTASK-3 (Mus musculus, UniProt Q3LS21); assay: Whole-cell patch clamp on tsA201 cells expressing cloned mouse TASK-3; assay type: cell-based; conditions: 10 µM, acute application
T3 construct: expressed in transfected cells; host or cells: tsA201 (modified HEK293), transient transfection, pCS2+
Procedure: as §1, §2, §3, §4, §5

murTASK-1 = target: T4, murTASK-1 (Mus musculus, UniProt O35111); assay: Whole-cell patch clamp on tsA201 cells expressing cloned mouse TASK-1; assay type: cell-based; conditions: 10 µM, acute application
T4 construct: expressed in transfected cells; host or cells: tsA201 (modified HEK293), transient transfection, pCS2+
Procedure: as §1, §2, §3, §4, §5

T1 sequence (Q9NPC2 whole entry): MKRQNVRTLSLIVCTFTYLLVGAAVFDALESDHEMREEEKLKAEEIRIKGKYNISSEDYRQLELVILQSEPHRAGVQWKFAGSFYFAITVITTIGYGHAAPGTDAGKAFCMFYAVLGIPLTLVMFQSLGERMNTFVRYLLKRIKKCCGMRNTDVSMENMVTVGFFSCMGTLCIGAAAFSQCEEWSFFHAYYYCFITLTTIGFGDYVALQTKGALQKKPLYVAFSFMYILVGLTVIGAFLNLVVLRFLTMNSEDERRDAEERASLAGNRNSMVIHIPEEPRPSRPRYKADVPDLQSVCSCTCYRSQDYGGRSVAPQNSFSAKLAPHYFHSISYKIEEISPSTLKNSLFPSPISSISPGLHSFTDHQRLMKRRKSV
T2 sequence (O14649 whole entry): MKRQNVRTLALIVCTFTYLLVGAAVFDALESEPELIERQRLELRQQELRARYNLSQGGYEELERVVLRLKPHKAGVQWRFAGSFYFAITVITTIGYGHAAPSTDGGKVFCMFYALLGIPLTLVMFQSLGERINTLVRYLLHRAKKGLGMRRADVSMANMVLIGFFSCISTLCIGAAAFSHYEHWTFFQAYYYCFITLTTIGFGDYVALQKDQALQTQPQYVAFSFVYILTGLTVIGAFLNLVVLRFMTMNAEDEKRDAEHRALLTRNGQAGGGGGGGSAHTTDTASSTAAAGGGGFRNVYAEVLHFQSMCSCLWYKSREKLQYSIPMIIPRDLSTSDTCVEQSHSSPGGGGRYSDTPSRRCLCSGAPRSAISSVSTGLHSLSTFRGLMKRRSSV
T3 sequence (Q3LS21 whole entry): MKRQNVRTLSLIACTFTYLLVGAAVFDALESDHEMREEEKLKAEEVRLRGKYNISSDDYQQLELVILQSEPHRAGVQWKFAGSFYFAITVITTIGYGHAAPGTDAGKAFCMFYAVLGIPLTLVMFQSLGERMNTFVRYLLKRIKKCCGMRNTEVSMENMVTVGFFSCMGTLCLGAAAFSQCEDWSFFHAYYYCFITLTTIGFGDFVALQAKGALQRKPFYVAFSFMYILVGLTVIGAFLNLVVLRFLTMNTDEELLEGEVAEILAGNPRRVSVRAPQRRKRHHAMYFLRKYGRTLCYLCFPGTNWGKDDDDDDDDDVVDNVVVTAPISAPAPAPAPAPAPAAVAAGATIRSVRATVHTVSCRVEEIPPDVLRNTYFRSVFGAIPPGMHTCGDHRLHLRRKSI
T4 sequence (O35111 whole entry): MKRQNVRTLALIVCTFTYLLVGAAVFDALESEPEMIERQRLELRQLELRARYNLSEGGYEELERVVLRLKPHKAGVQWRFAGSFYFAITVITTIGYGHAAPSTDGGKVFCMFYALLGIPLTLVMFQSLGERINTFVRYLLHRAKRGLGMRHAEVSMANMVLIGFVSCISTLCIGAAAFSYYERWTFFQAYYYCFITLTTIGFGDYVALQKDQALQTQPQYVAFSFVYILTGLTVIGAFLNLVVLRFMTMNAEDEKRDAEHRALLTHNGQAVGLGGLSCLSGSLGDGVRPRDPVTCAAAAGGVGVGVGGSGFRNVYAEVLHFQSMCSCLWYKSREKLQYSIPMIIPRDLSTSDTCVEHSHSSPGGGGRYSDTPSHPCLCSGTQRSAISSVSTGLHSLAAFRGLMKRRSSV

SMILES | effect on minute volume [1] | inhibition of human TASK-3 current (human TASK-3; 10 µM, WT) [%] | inhibition of human TASK-3 current (human TASK-3; 100 µM, WT) [%] | inhibition of human TASK-3 current (human TASK-3; 300 µM) [%] | EC50 (human TASK-3) [µM] | inhibition of human TASK-1 current (human TASK-1; 10 µM) [%] | inhibition of human TASK-1 current (human TASK-1; 100 µM) [%] | inhibition of human TASK-1 current (human TASK-1; 300 µM) [%] | EC50 (human TASK-1) [µM] | effect on minute volume [2] | current inhibition of murTASK-3 (murTASK-3) [%] | inhibition of human TASK-3 current (human TASK-3; 1 µM) [%] | inhibition of human TASK-3 current (human TASK-3; 3 µM) [%] | current inhibition of murTASK-1 (murTASK-1) [%] | inhibition of human TASK-1 current (human TASK-1; 1 µM) [%] | inhibition of human TASK-1 current (human TASK-1; 3 µM) [%]
CCN1CC(CCN2CCOCC2)C(c2ccccc2)(c2ccccc2)C1=O (stereo not shown) [GAL‐053] | had no effect | 8 | 35 | 50 | ~286 | 3 | 24 | 47 | ~336 | had no effect | – | – | – | – | – | –
CCN1CC(CCN2CCOCC2)C(c2ccccc2)(c2ccccc2)C1=O (stereo not shown) [GAL‐054] | dose‐dependently increased minute volume | 79 | – | – | ~1.4 | 75 | – | – | ~1.6 | dose‐dependently increased minute volume | 33 | 43 | 66 | 63 | 45 | 54
